Tested on: factor Xa
Assay: antifactor Xa activity of tafoxiparin
Type: biochemical
Conditions: definition of tafoxiparin

Chain of factor Xa (P01008 33-464 partner): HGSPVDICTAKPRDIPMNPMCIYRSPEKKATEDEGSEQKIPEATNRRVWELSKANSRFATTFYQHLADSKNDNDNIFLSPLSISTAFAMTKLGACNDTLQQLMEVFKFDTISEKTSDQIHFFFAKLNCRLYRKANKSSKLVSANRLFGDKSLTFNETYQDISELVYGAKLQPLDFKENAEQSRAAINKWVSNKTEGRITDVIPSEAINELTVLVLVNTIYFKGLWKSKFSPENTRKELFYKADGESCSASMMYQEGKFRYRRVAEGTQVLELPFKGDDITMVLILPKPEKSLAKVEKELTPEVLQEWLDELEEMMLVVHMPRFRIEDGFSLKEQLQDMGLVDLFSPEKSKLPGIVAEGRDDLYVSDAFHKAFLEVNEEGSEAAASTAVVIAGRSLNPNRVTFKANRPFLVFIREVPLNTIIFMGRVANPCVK
Chain of factor Xa (P00742 235-488 limits assumed, further chain): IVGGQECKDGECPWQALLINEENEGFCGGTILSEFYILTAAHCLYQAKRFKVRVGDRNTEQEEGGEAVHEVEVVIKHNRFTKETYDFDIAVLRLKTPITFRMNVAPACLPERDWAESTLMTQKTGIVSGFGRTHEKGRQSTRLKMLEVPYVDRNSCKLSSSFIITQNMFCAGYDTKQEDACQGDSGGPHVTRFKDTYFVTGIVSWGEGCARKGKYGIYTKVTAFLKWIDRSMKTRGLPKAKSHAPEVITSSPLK

tafoxiparin
antifactor Xa activity: less than 10 IU/mg

Source: patent US12611423B2, “Medical use of tafoxiparin” (DILAFOR AB, priority 2022, dated 2026)
